From patent publication US9592305B2, “Compositions of jasmonate compounds and methods of use” (Nanocare Technologies, Inc., priority 2011, dated 2017)

How the values were obtained:
[1] = system: HUVEC; assay: Cell cycle by flow cytometry (propidium iodide, acridine orange) in HUVEC; type: cell-based, human
Experimental: FIG. 13: Effect of MDJ on the cell cycle in HUVEC after 18 h of exposure in vitro. The concentrations used in each test are shown in graphics measures cell cycle were performed on a BD FACScalibur equipment, after labeling with propidium iodide simple. The staining with acridine orange served as a control of the process of apoptosis.
(§1) Cell lines used: non-neoplastic cells derived from human umbilical cord endothelial (HUVEC) and neoplastic cells of melanoma, B16F10 murine tumor. The HUVECs were provided by Dra. Dulcinea Saes Parra Abdalla, Department of Clinical and Toxicological Analyses, FCF-USP's and B16F10 murine melanoma cells, by Prof. Marcia Cominetti Department of Physiology and Molecular Biology of UFSCar. Both strains were grown in RPMI with 10% fetal calf serum. […] The preliminary investigation of the effect on angiogenesis was also made in vitro with HUVEC. The measures were undertaken to study the cell cycle by flow cytometry (propidium iodide and acridine orange) the assessment of mitochondrial activity by confocal microscopy (Mitotracker Red), and measurement of VEGF and PGE2 production by HUVEC, we performed cell culture supernatants by ELISA with commercial antibodies.

[2] = Degradation in vivo (applicant's unpublished studies)
[3] = system: VEGF; assay: VEGF production by HUVEC, ELISA of culture supernatants; type: cell-based, human
Experimental: as §1

[4] = Toxicity observations in the MNNG colon tumor study (histopathology, hematology, clinical chemistry); details: mouse, in vivo, ip
Experimental: (§2) Briefly, Balb/c mice were treated by intrarectal instillations of the carcinogen N-methyl-N′-nitro-N-nitrosoguanidine (MNNG), twice a week for 2 weeks (XX), and were sacrificed 24 weeks after the beginning of the treatment. Ten days before the end of the experiment, the animals of group A (n=10) were treated with daily i.p. injections of cyclodextrin-carried MDJ (10 μL of saline solution with 1 millimolar MDJ) for every 60 grams of body weight. The animals of group B (n=10) were treated by daily intrarectal instillations of cyclodextrin-carried MDJ, at the same dosage. The group C (n=10) was treated with MNNG and with daily i.p. injections of MDJ (diluted at 10% in 100 μL of saline). The animals of the group D were treated with MNNG and by daily intrarectal instillations of MDJ, at the same dosage. The control group E was treated with MNNG alone. The control groups F and G were treated with saline and cyclodextrin-carried MDJ, i.p. and i.r, respectively. The control groups H and I received saline and MDJ, i.p. and i.r, respectively. The dosages of cyclodextrin-carried MDJ and MDJ were based on previous animal pilot studies.
Colon tumor (T), adjacent non-tumor site (NT), macroscopically normal colonic mucosa from non-tumor rats (N) in the same treatment group were obtained. […] Standard hematology and clinical chemistry parameters were also monitored.

[5] = system: B16F10 murine melanoma; assay: CAM model inoculated with B16F10 murine melanoma; type: in vivo
Experimental: After the opening and closing of windows all eggs were replaced in the incubator, with the same initial conditions and maintained for a further seven days, typically. In this interval procedures were carried out for tests of angiogenesis or for research on tumor growth in vivo. The observation of angiogenesis in eggs inoculated with tumor cells followed virtually the same test model of angiogenesis. Exposure to pure MDJ (cis/trans 96% pure from Sigma) or cyclodextrin-carried MDJ made in Example 3 above was performed on day 8, with the remaining eggs in the incubator until day 14. The inoculation with the melanoma cells was performed on day 4, eggs received MDJ pure or cyclodextrin-carried MDJ on the 8th day and remained incubated up to 14 days. During the development of the protocol, the time of inoculation and treatment were adjusted. Care during the collection and to obtain the images were standardized for all experiments.
The typical inoculum was 2×10^4 cells per egg, in a volume of culture medium less than […]. Melamona growth was accompanied by visual inspection of pigmented mass formation on the CAM, the magnifying glass and microscope. […]
Eggs used were measured by sampling and the average volume of 60 mL was maintained throughout the period of testing with a standard deviation below 10%. […] The tests of viability were monitored for up to 10 days. […]

[6] = system: chemically induced colon tumors; assay: Chemically (MNNG) induced colon tumors in mice: tumor size, PCNA, apoptotic index, CASPASE-3; type: in vivo, Balb/c mice
Experimental: The effect of cyclodextrin-carried MDJ made in Example 3 above was studied in an experimental model of colonic cancer in mice. Apoptosis and cell proliferation, the two most important events related to tumor growth were investigated. The apoptosis and proliferation indexes of colon tumor, adjacent non-cancer tissues and normal colonic tissues were determined. Apoptosis was quantified by apoptotic nuclei counting and CASPASE-3 immunostaining, whereas proliferation was determined by PCNA immunostaining.
The animals were maintained in agreement with the guidelines of Committee on Care and Uses of Laboratory Animals of the National Research Council of the National Institutes of Health (USA). The mice were fed with food and water ad libitum and maintained on hardwood bedding under a 12-h light/dark cycle. Animals were weighed weekly during the experiments. All experiments were approved by the USP Animal Ethics Committee.
as §2
Colon tumor (T), adjacent non-tumor site (NT), macroscopically normal colonic mucosa from non-tumor […] (N) in the same treatment group were obtained. Immunohistochemistry was performed to study cell proliferation by the Proliferating cellular antigen (PCNA) staining and to analyze cell apoptosis by both the apoptotic bodies counting and by the CASPASE-3 staining. Results were expressed and PCNA labeling index (PCNA-Li), Apoptotic Index (AI) and CASPASE-3 Labeling Index (CASPASE-3-Li). Standard hematology and clinical chemistry parameters were also monitored.
Apoptosis was determined by apoptotic nuclei counting. Sections were stained with hematoxylin and eosin to evaluate the number of apoptotic cells per section. The criteria used to recognize apoptotic cells were: shrunk size, loss of contact with surrounding tissues (at times forming the classically described halo) and nuclear condensation as previously described (Yu et al., Gut 2002, 51:480-484). At least 1 000 cells were counted in five random fields and the percentage of cells with apoptotic features was then calculated (apoptotic index or AI). The apoptotic nuclei counts were compared with findings obtained by CASPASE-3 immunostaining in 30 randomly selected areas. A strong correlation between apoptotic nuclei count and CASPASE-3 results was found (r=0.83, P<0.001).
Proliferation was assayed by immunoperoxidase staining for Proliferating Cell Nuclear Antigen (PCNA) as described previously. Briefly, paraffin-embedded sections from each specimen were labeled with PCNA antibody, after microwave antigen retrieval in citrate buffer. Negative controls were run by replacing the primary antibody with non-immune serum. The slides were developed in 3,3-diaminobenzidine tetrahydrochloride (DAB, Dako, Denmark) and counter-stained with Mayer haematoxylin. […]

[7] = system: B16F10 murine melanoma cells; assay: MTT cytotoxicity and growth curves in murine melanoma cells; type: cell-based; details: cultures of murine melanoma
[8] = system: CAM blood vessels; details: in vivo
Experimental: For the tests with eggs, egg whites were used Gallus gallus incubated in a thermostated incubator at controlled temperature and humidity. The incubation was performed with and without eggs lying giragem. A mark on the upper surface of the bark was used to control this procedure. The eggs were opened on the fourth day of incubation, after careful cleaning of the skin with cotton wool soaked in 70% alcohol. The opening was performed in laminar flow, keeping all your eggs in the same position in which they were hatched, supported on a plastic holder and marked on the upper surface. The experimental procedure was adapted and refined for the project, drawing on the first half of the twentieth century. The description of the method developed
After the opening and closing of windows all eggs were replaced in the incubator, with the same initial conditions and maintained for a further seven days, typically. […]
After brief fixation, the hull was breached and the embryo inert placed on a petri dish. […] In each trial, the image was captured from the fund, kept the lighting and color adjustments in order to standardize the images of the analyzed material. […]
Each region of the same sample was imaged in bright field and dark field, for better observation of details. The growth of the vascular network was analyzed with the program Image J by processing the images in bright field binary images. […]

[9] = system: HUVEC; assay: Mitochondrial activity of endothelial cells, Mitotracker Red confocal microscopy; type: cell-based, human; details: low-density plating
Experimental: FIGS. 15A-15F each show effect of MDJ on the mitochondrial activity of endothelial cells after 4 h of exposure in low-density plating on glass coverslips 25 mm in 24-well plates, as measured by Mitotracker red fluorescence confocal microscopy, increased 80× (40×+2× digital zoom). The calibration parameters were maintained for all measures. […] Concentrations equal to or greater than 1 mM lead to a decrease in the intensity/area of marking.
FIG. 16: Effect of MDJ on the mitochondrial activity of endothelial cells after 24 hours exposure in low-density plating on glass coverslips 25 mm in 24-well plates, as measured by Mitotracker Red fluorescence in confocal microscope, 40× magnification. The calibration parameters were maintained for all measurements, each point is the average of six independent measurements.
Cell lines used: non-neoplastic cells derived from human umbilical cord endothelial (HUVEC) and neoplastic cells of melanoma, B16F10 murine tumor. The HUVECs were provided by Dra. Dulcinea Saes Parra Abdalla, Department of Clinical and Toxicological Analyses, FCF-USP's and B16F10 murine melanoma cells, by Prof. Marcia Cominetti Department of Physiology and Molecular Biology of UFSCar. Both strains were grown in RPMI with 10% fetal calf serum. […] The preliminary investigation of the effect on angiogenesis was also made in vitro with HUVEC. […]

[10] = system: PGE2; assay: PGE2 production by HUVEC, ELISA of culture supernatants; type: cell-based, human; details: 1×10^4 cells/mL and 2×10^5 cells/mL plating
Experimental: as §1

[11] = system: HUVEC; assay: MTT cytotoxicity and growth curves in endothelial cells; type: cell-based, human

CCCCCC1C(=O)CCC1CC(=O)OC (centres unmarked) [MDJ, methyl 2-(3-oxo-2-pentylcyclopentyl)acetate]
Distribution according to the phases of the cell cycle,% (18 h): Dead cells ([1]; MDJ 1 nM): 13% | Distribution according to the phases of the cell cycle,% (18 h): G0/G1 ([1]; MDJ 1 nM): 72% | Distribution according to the phases of the cell cycle,% (18 h): G2/S ([1]; MDJ 1 nM): 15% | Marking with Acridine Orange,% (18 h) ([1]; MDJ 1 nM): 6.2 ± 0.1% | Distribution according to the phases of the cell cycle,% (18 h): Dead cells ([1]; MDJ 10 nM): 93% | Distribution according to the phases of the cell cycle,% (18 h): G0/G1 ([1]; MDJ 10 nM): 5% | Distribution according to the phases of the cell cycle,% (18 h): G2/S ([1]; MDJ 10 nM): 2% | Marking with Acridine Orange,% (18 h) ([1]; MDJ 1 uM): 12 ± 0.9% | Distribution according to the phases of the cell cycle,% (18 h): Dead cells ([1]; MDJ 10 uM): 7% | Distribution according to the phases of the cell cycle,% (18 h): G0/G1 ([1]; MDJ 10 uM): 60% | Distribution according to the phases of the cell cycle,% (18 h): G2/S ([1]; MDJ 10 uM): 33% | Marking with Acridine Orange,% (18 h) ([1]; MDJ 10 uM): 9.0 ± 0.5% | Distribution according to the phases of the cell cycle,% (18 h): Dead cells ([1]; MDJ 100 uM): 8% | Distribution according to the phases of the cell cycle,% (18 h): G0/G1 ([1]; MDJ 100 uM): 56% | Distribution according to the phases of the cell cycle,% (18 h): G2/S ([1]; MDJ 100 uM): 36% | Marking with Acridine Orange,% (18 h) ([1]; MDJ 100 uM): 6.7 ± 0.3% | degradation in vivo [2]: degraded very quickly in vivo | VEGF, pg/mL (2 × 10^6 cells, 4 h) ([3]; MDJ 1 nM): 566 ± 31 pg/mL | VEGF, pg/mL (2 × 10^6 cells, 4 h) ([3]; MDJ 10 uM): 319 ± 12 pg/mL | VEGF, pg/mL (2 × 10^6 cells, 4 h) ([3]; MDJ 100 uM): 450 ± 30 pg/mL | tolerability of i.p. injections (groups C and H discharged) [4]: early signs or peritonitis | melanoma bodies on CAM ([5]; CAM model): dose-dependent involution | survival of eggs inoculated with melanoma cells ([5]; eggs with B16F10): partially recovered this survival | cell proliferation and apoptosis in normal colonic mucosa and mucosa adjacent to tumors ([6]; MNNG-treated and non-MNNG animals): not associated to any significant changes in cell proliferation and apoptosis | Apoptotic Index (Tumor) ([6]; MNNG-treated mice, daily i.r.): 0.29 ± 0.04 | Caspase-3-Li (tumor) ([6]; MNNG-treated mice, daily i.r.): 0.39 ± 0.11 | Tumor Size ([6]; MNNG-treated mice, daily i.r. instillation): 0.56 mm^2 | PCNA-Li ([6]; colonic tumors, MNNG-treated mice, daily i.r.): 0.41 ± 0.06 | effect on tumor markers ([6]; i.r. administration): mild, but significant reduction in the above tumor markers | toxicity (MTT, growth curves) compared with HUVEC [7]: toxic concentrations were very close | tolerability in fertilized eggs [8]: well tolerated by the eggs | concentrations leading to a decrease in the intensity/area of Mitotracker red marking [9]: ≥ 1 mM | PGE2 production by HUVEC [10]: no increase in PGE2 production | folding time (growth curves) ([11]; HUVEC, at concentrations below 1 mM): about 20 h | concentrations at which MTT dye reduction (mitochondrial activity) was maintained at a constant value ([11]; confluent HUVEC): less than 1 mM
